For test [1], the target named is HCV NS3/4A protease genotype 1b (Hepatitis C virus genotype 1b, UniProt P26663). The experiment in a line: HCV NS3/4A protease time-resolved fluorescence (TRF) assay, Ki against genotype 1b. The conditions noted are these: IC50 [gt-1b] (nM), NS3/4A genotype 1b, enzyme 0.2 nM. The test is classed as biochemical. An outline of the steps: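 Enzyme 0.2 nM 1b / 0.4 nM A156T / 0.025 nM 3a; 30 min preinc. w/ cpd; 25 nM TRF peptide; 2.5 h RT; ex 340/em 615 time-delayed; 4-param IC50 → Ki = IC50/(1+[S]/KM).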

A further test has as its system HCV genotype 1b replicon. Description: HCV replicon assay, genotype 1b replicon EC50. The test is classed as cell-based, Hepatitis C virus. The conditions noted are these: genotype 1b replicon, read-out: EC50 [gt-1b]. The procedure, abridged: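 Cells harbouring a stable replicon are grown under G418 selection, then plated with test compound in G418-free medium for 24-48 hours. After washing and lysis, RNA or luciferase signal is measured and expressed as percent of DMSO control to give EC50.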
(In general: A replicon is a self-replicating genome or part of one, used to study replication in cells.)

Read-outs that look alike come from different tables or passages of the source.

The values below come from US8987195B2 (priority 2012, dated 2015).

As a reminder, the IC50 is the point on the concentration scale where inhibition reaches its midpoint. As usually defined, the EC50 is the concentration that produces a half-maximal response. As to `CCc1nc2ccc(OC)cc2c2c1O[C@]1(CC2)C[C@H]2C(=O)N[C@]3(C(=O)NS(=O)(=O)C4(C)CC4)C[C@H]3/C=C\CCCCC[C@H](NC(=O)OC(C)(C)C)C(=O)N2C1` [Example 312, tert-butyl [(2R,6S,12Z,13aS,14aR,16aS)-5′-ethyl-9′-methoxy-14a-{[(1-methylcyclopropyl)sulfonyl]carbamoyl}-5,16-dioxo-1,1′,2′,5,6,7,8,9,10,11,13a,14,14a,15,16,16a-hexadecahydrospiro[cyclopropa[e]pyrrolo[1,2-a][1,4]diazacyclopentadecine-2,3′-pyrano[2,3-c]quinolin]-6-yl]carbamate], the IC50 in test [1] stood at 0.009 nM. Besides, the EC50 in the test with HCV genotype 1b replicon (Hepatitis C virus) came out at 3.56 nM.
For `CCc1ccc2nc(C)c3c(c2c1)CC[C@]1(C[C@H]2C(=O)N[C@]4(C(=O)NS(=O)(=O)C5(C)CC5)C[C@H]4/C=C\CCCCC[C@H](NC(=O)OC(C)(C)C)C(=O)N2C1)O3` [Example 313, tert-butyl [(2R,6S,12Z,13aS,14aR,16aS)-9′-ethyl-5′-methyl-14a-{[(1-methylcyclopropyl)sulfonyl]carbamoyl}-5,16-dioxo-1,1′,2′,5,6,7,8,9,10,11,13a,14,14a,15,16,16a-hexadecahydrospiro[cyclopropa[e]pyrrolo[1,2-a][1,4]diazacyclopentadecine-2,3′-pyrano[2,3-c]quinolin]-6-yl]carbamate] the same measures were 0.016 nM and 2.87 nM.
For `CCc1ccc2nc(C)c3c(c2c1)CC[C@]1(C[C@H]2C(=O)N[C@]4(C(=O)NS(=O)(=O)C5(C)CC5)C[C@H]4/C=C\CCCCC[C@H](NC(=O)OC(C)(C)C(F)(F)F)C(=O)N2C1)O3` [Example 314, 1,1,1-trifluoro-2-methylpropan-2-yl [(2R,6S,12Z,13aS,14aR,16aS)-9′-ethyl-5′-methyl-14a-{[(1-methylcyclopropyl)sulfonyl]carbamoyl}-5,16-dioxo-1,1′,2′,5,6,7,8,9,10,11,13a,14,14a,15,16,16a-hexadecahydrospiro[cyclopropa[e]pyrrolo[1,2-a][1,4]diazacyclopentadecine-2,3′-pyrano[2,3-c]quinolin]-6-yl]carbamate] the same measures were 0.013 nM and 8.74 nM.
For `CC(C)OC(=O)N[C@H]1CCCCC/C=C\[C@@H]2C[C@@]2(C(=O)NS(=O)(=O)C2(C)CC2)NC(=O)[C@@H]2C[C@]3(CCc4c(c(C(F)F)nc5ccccc45)O3)CN2C1=O` [Example 317, propan-2-yl [(2R,6S,12Z,13aS,14aR,16aS)-5′-(difluoromethyl)-14a-{[(1-methylcyclopropyl)sulfonyl]carbamoyl}-5,16-dioxo-1,1′,2′,5,6,7,8,9,10,11,13a,14,14a,15,16,16a-hexadecahydrospiro[cyclopropa[e]pyrrolo[1,2-a][1,4]diazacyclopentadecine-2,3′-pyrano[2,3-c]quinolin]-6-yl]carbamate] the same measures were 0.023 nM and 3.25 nM.
Turning to `COc1ccc2nc(C)c3c(c2n1)CC[C@]1(C[C@H]2C(=O)N[C@]4(C(=O)NS(=O)(=O)C5(C)CC5)C[C@H]4/C=C\CCCCC[C@H](NC(=O)OC(C)(C)C(F)(F)F)C(=O)N2C1)O3` [Example 318, 1,1,1-trifluoro-2-methylpropan-2-yl [(2R,6S,12Z,13aS,14aR,16aS)-2′-methoxy-6′-methyl-14a-{[(1-methylcyclopropyl)sulfonyl]carbamoyl}-5,16-dioxo-1,5,6,7,8,9,9′,10,10′,11,13a,14,14a,15,16,16a-hexadecahydrospiro[cyclopropa[e]pyrrolo[1,2-a][1,4]diazacyclopentadecine-2,8′-pyrano[2,3-c][1,5]naphthyridin]-6-yl]carbamate], in test [1], the IC50 amounted to 0.013 nM. Moreover, the half-maximal effective concentration (EC50) in the test with HCV genotype 1b replicon (Hepatitis C virus) was determined as 4.99 nM.
With `Cc1nc2ccc(C(F)(F)F)cc2c2c1O[C@]1(CC2)C[C@H]2C(=O)N[C@]3(C(=O)NS(=O)(=O)C4(C)CC4)C[C@H]3/C=C\CCCCC[C@H](NC(=O)OC(C)(C)C(F)(F)F)C(=O)N2C1` [Example 319, 1,1,1-trifluoro-2-methylpropan-2-yl [(2R,6S,12Z,13aS,14aR,16aS)-5′-methyl-14a-{[(1-methylcyclopropyl)sulfonyl]carbamoyl}-5,16-dioxo-9′-(trifluoromethyl)-1,1′,2′,5,6,7,8,9,10,11,13a,14,14a,15,16,16a-hexadecahydrospiro[cyclopropa[e]pyrrolo[1,2-a][1,4]diazacyclopentadecine-2,3′-pyrano[2,3-c]quinolin]-6-yl]carbamate], the IC50 in test [1] (K+ salt) stood at 0.044 nM. In addition, in the test on HCV genotype 1b replicon (Hepatitis C virus, K+ salt), the EC50 is 17.8 nM.
`Cc1nc2ccccc2c2c1O[C@]1(CC2)C[C@H]2C(=O)N[C@]3(C(=O)NS(=O)(=O)C4(C)CC4)C[C@H]3/C=C\CCCCC[C@H](NC(=O)OC3CC(F)(F)C3(F)F)C(=O)N2C1` (stereo partly drawn) [Example 320, 2,2,3,3-tetrafluorocyclobutyl [(2R,6S,12Z,13aS,14aR,16aS)-5′-methyl-14a-{[(1-methylcyclopropyl)sulfonyl]carbamoyl}-5,16-dioxo-1,1′,2′,5,6,7,8,9,10,11,13a,14,14a,15,16,16a-hexadecahydrospiro[cyclopropa[e]pyrrolo[1,2-a][1,4]diazacyclopentadecine-2,3′-pyrano[2,3-c]quinolin]-6-yl]carbamate] registered an IC50 in test [1] of 0.013 nM. The EC50 in the test on HCV genotype 1b replicon (Hepatitis C virus) is 4.44 nM.
In test [1], `Cc1nc2ccccc2c2c1O[C@]1(CC2)C[C@H]2C(=O)N[C@]3(C(=O)NS(=O)(=O)C4(C)CC4)C[C@H]3/C=C\CCCCC[C@H](NC(=O)OC3CC(F)(F)C3(F)F)C(=O)N2C1` (stereo partly drawn) [Example 321, 2,2,3,3-tetrafluorocyclobutyl [(2R,6S,12Z,13aS,14aR,16aS)-5′-methyl-14a-{[(1-methylcyclopropyl)sulfonyl]carbamoyl}-5,16-dioxo-1,1′,2′,5,6,7,8,9,10,11,13a,14,14a,15,16,16a-hexadecahydrospiro[cyclopropa[e]pyrrolo[1,2-a][1,4]diazacyclopentadecine-2,3′-pyrano[2,3-c]quinolin]-6-yl]carbamate] displayed an IC50 of 0.03 nM. The EC50 in the test on HCV genotype 1b replicon was 7.16 nM.
In test [1], `CC(C)(OC(=O)N[C@H]1CCCCC/C=C\[C@@H]2C[C@@]2(C(=O)NS(=O)(=O)C2(C)CC2)NC(=O)[C@@H]2C[C@]3(CCc4c(c(C5CC5)nc5ccc6c(c45)OCO6)O3)CN2C1=O)C(F)(F)F` [Example 322, 1,1,1-trifluoro-2-methylpropan-2-yl [(2R,6S,12Z,13aS,14aR,16aS)-7′-cyclopropyl-14a-{[(1-methylcyclopropyl)sulfonyl]carbamoyl}-5,16-dioxo-1,5,6,7,8,9,10,10′,11,11′,13a,14,14a,15,16,16a-hexadecahydrospiro[cyclopropa[e]pyrrolo[1,2-a][1,4]diazacyclopentadecine-2,9′-[1,3]dioxolo[4,5-f]pyrano[2,3-c]quinolin]-6-yl]carbamate] yielded an IC50 of 0.073 nM. Also, the EC50 with HCV genotype 1b replicon (Hepatitis C virus) is 6.92 nM.
In the same order, the values of `CC1(S(=O)(=O)NC(=O)[C@@]23C[C@H]2/C=C\CCCCC[C@H](NC(=O)OC2CCCC2)C(=O)N2C[C@@]4(CCc5c(c(C6CC6)nc6ccc7c(c56)OCO7)O4)C[C@H]2C(=O)N3)CC1` [Example 323, cyclopentyl [(2R,6S,12Z,13aS,14aR,16aS)-7′-cyclopropyl-14a-{[(1-methylcyclopropyl)sulfonyl]carbamoyl}-5,16-dioxo-1,5,6,7,8,9,10,10′,11,11′,13a,14,14a,15,16,16a-hexadecahydrospiro[cyclopropa[e]pyrrolo[1,2-a][1,4]diazacyclopentadecine-2,9′-[1,3]dioxolo[4,5-f]pyrano[2,3-c]quinolin]-6-yl]carbamate] are 0.012 nM and 11.4 nM.
For `CC(C)(C)COC(=O)N[C@H]1CCCCC/C=C\[C@@H]2C[C@@]2(C(=O)NS(=O)(=O)C2(C)CC2)NC(=O)[C@@H]2C[C@]3(CCc4c(c(C5CC5)nc5ccc6c(c45)OCO6)O3)CN2C1=O` [Example 324, 2,2-dimethylpropyl [(2R,6S,12Z,13aS,14aR,16aS)-7′-cyclopropyl-14a-{[(1-methylcyclopropyl)sulfonyl]carbamoyl}-5,16-dioxo-1,5,6,7,8,9,10,10′,11,11′,13a,14,14a,15,16,16a-hexadecahydrospiro[cyclopropa[e]pyrrolo[1,2-a][1,4]diazacyclopentadecine-2,9′-[1,3]dioxolo[4,5-f]pyrano[2,3-c]quinolin]-6-yl]carbamate] the same measures were 0.022 nM and 3.62 nM.
Turning to `CCCOC(=O)N[C@H]1CCCCC/C=C\[C@@H]2C[C@@]2(C(=O)NS(=O)(=O)C2(C)CC2)NC(=O)[C@@H]2C[C@]3(CCc4c(c(C(F)F)nc5ccccc45)O3)CN2C1=O` [Example 325, propyl [(2R,6S,12Z,13aS,14aR,16aS)-5′-(difluoromethyl)-14a-{[(1-methylcyclopropyl)sulfonyl]carbamoyl}-5,16-dioxo-1,1′,2′,5,6,7,8,9,10,11,13a,14,14a,15,16,16a-hexadecahydrospiro[cyclopropa[e]pyrrolo[1,2-a][1,4]diazacyclopentadecine-2,3′-pyrano[2,3-c]quinolin]-6-yl]carbamate], 0.013 nM corresponded to half-maximal inhibition in test [1] (IC50). Besides, the EC50 in the test on HCV genotype 1b replicon (Hepatitis C virus) is 3.23 nM.
